The values below come from patent US20040162221A1, “Pyrazole derivatives and herbicides containing the same” (IDEMITSU KOSAN CO., LTD., priority 1998, published 2004).

In series [1] the test system is large crabgrass. The series is described as follows: Upland post-emergence treatment test, large crabgrass. Format: in vivo. As to conditions: post-emergence spray at 3-4 leaf stage, 80 g/ha, 30th day after treatment, greenhouse. The gist of the method:
(§1)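 Plants in upland soil at the 3-4 leaf stage, greenhouse-grown, were sprayed on foliage at 2,000 L/ha with a water suspension of 10% wettable-powder formulation. Efficacy assessed 30 days after treatment as remaining plant weight relative to the untreated plot (×100).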

Another series has as its system common lambsquaters. The series is described as follows: Upland pre-emergence treatment test, common lambsquaters. In kind it is in vivo, common lambsquaters (Chenopodium album). As to conditions: pre-emergence soil surface spray, 80 g/ha, 20th day after treatment, greenhouse. From the text:
(§2) 97 Parts by weight of talc (trade name: Zeaklite, supplied by Zeaklite Industry) as a carrier, 1.5 parts by weight of alkylarylsulfonic acid salt (trade name: Neoplex, supplied by Kao-Atlas K.K.) as a surfactant and 1.5 parts by weight of a nonionic and anionic surfactant (trade names Sorpol 800A, supplied by Toho Chemical Co., Ltd.) were uniformly pulverized and mixed to prepare a carrier for a wettable powder.
(§3) 90 Parts by weight of the above carrier for a wettable powder and 10 parts by weight of one of the compounds of the present invention were uniformly pulverized and mixed to obtain herbicides. Further, in Comparative Herbicide Examples, comparative herbicides were also prepared from the following compounds (A) and (B) in the same manner.
(§4) Herbicidal efficacy and phytotoxicity to crops were determined on the basis of the ratio of remaining plant weight to plant weight in non-treated plot=(remaining plant weight in treated plot/plant weight in non-treated-plot)×100. The ratings were applied to the following biological tests.
(§5) Seeds of weeds such as velvetleaf, common lambsquaters, redroot pigweed, common ragweed, green foxtail and large crabgrass and seeds of corn were sown in 1/5,000-are Wagner pots filled with upland soil, and covered with upland soil. Then, a predetermined amount of the herbicide prepared in the above (1) was suspended in water, and the suspension was uniformly sprayed onto the soil surface at a rate of 2,000 liters/hectare. Then, the seeds were grown in a greenhouse, and on the 20th day after the treatment, the herbicide was evaluated for herbicidal efficacy and phytotoxicity to corn on the basis of the ratings shown in (2).

For series [2], the system named is redroot pigweed. The series is described as follows: Upland post-emergence treatment test, redroot pigweed. In kind it is in vivo, redroot pigweed (Amaranthus retroflexus). As to conditions: post-emergence spray at 3-4 leaf stage, 80 g/ha, 30th day after treatment, greenhouse. The gist of the method:
as §1

Series [3] deals with common ragweed. The series is described as follows: Upland post-emergence treatment test, common ragweed. In kind it is in vivo, common ragweed (Ambrosia artemisilfolia). As to conditions: post-emergence spray at 3-4 leaf stage, 80 g/ha, 30th day after treatment, greenhouse. In outline: as §1
The test system of series [4] is corn. Nature of the series: Upland post-emergence treatment test, phytotoxicity to corn. Format: in vivo. As to conditions: post-emergence spray at 3-4 leaf stage, 80 g/ha, 30th day after treatment, greenhouse. In outline: as §1
Series [5] relates to redroot pigweed. The series is described as follows: Upland pre-emergence treatment test, redroot pigweed. In kind it is in vivo, redroot pigweed (Amaranthus retroflexus). As to conditions: pre-emergence soil surface spray, 80 g/ha, 20th day after treatment, greenhouse.
Text: as §2, §3, §4, §5

In series [6] the test system is large crabgrass. The series is described as follows: Upland pre-emergence treatment test, large crabgrass. Format: in vivo. As to conditions: pre-emergence soil surface spray, 80 g/ha, 20th day after treatment, greenhouse.
Text: as §2, §3, §4, §5

Series [7] has as its system green foxtail. Nature of the series: Upland post-emergence treatment test, green foxtail. In kind it is in vivo, green foxtail (Setaria viridis). As to conditions: post-emergence spray at 3-4 leaf stage, 80 g/ha, 30th day after treatment, greenhouse. In outline:
as §1

Series [8] relates to green foxtail. The series is described as follows: Upland pre-emergence treatment test, green foxtail. In kind it is in vivo, green foxtail (Setaria viridis). As to conditions: pre-emergence soil surface spray, 80 g/ha, 20th day after treatment, greenhouse.
Text: as §2, §3, §4, §5

For series [9], the system named is corn. Nature of the series: Upland pre-emergence treatment test, phytotoxicity to corn. In kind it is in vivo. As to conditions: pre-emergence soil surface spray, 80 g/ha, 20th day after treatment, greenhouse.
Text: as §2, §3, §4, §5

Series [10] has as its system common ragweed. Nature of the series: Upland pre-emergence treatment test, common ragweed. As to conditions: pre-emergence soil surface spray, 80 g/ha, 20th day after treatment, greenhouse. Format: in vivo, common ragweed (Ambrosia artemisilfolia).
Text: as §2, §3, §4, §5

In series [11] the test system is velvetleaf. Nature of the series: Upland pre-emergence treatment test, velvetleaf. In kind it is in vivo, velvetleaf (Abutilon theophrasti). As to conditions: pre-emergence soil surface spray, 80 g/ha, 20th day after treatment, greenhouse.
Text: as §2, §3, §4, §5

The test system of series [12] is velvetleaf. Nature of the series: Upland post-emergence treatment test, velvetleaf. Format: in vivo, velvetleaf (Abutilon theophrasti). As to conditions: post-emergence spray at 3-4 leaf stage, 80 g/ha, 30th day after treatment, greenhouse. The gist of the method: as §1
Note: ranges in brackets are in %.

Consider `CCN(CC)CC.Cc1c(C(=O)c2cnn(C)c2O)ccc2c1C(C)(C)CS2(=O)=O` [Compound 50, 5-(1′-methyl-5′-hydroxypyrazol-4′-yl)carbonyl-3,3,4-trimethyl-2,3-dihydrobenzothiophene-1,1-dioxide triethylamine salt], for which the “Herbicidal Efficacy FF = Large crabgrass” value in the series with large crabgrass [1] and in the series on large crabgrass [6] was 5 (0) in each case. In the series on common lambsquaters, the “Herbicidal Efficacy BB = Common lambsquaters” value was 5 (0). Also, in the series with redroot pigweed [2], the “Herbicidal Efficacy CC = Redroot Pigweed” value is reported as 5 (0). For the same compound, the “Herbicidal Efficacy DD = Common ragweed” value in the series with common ragweed [3] is 5 (0); with common ragweed [10] it was 4 (1-20). Besides, the “Phytotoxicity Corn” value with corn [4] and in the series on corn [9] was “− (100)” throughout. Further, the “Herbicidal Efficacy CC = Rough Pigweed” value with redroot pigweed [5] is recorded as 5 (0). The “Herbicidal Efficacy EE = Green foxtail” value in the series on green foxtail [7] and in the series on green foxtail [8] was 5 (0) throughout. The “Herbicidal Efficacy AA = Velvetleaf” value in the series with velvetleaf [11] and with velvetleaf [12] was 5 (0) each time.
